Measured values: patent publication US7375079B2 (priority 1999, dated 2008)

Target: BttxB (Clostridium botulinum, UniProt P10844)
Format: biochemical

Sequence of BttxB (P10844 2-441 limits assumed): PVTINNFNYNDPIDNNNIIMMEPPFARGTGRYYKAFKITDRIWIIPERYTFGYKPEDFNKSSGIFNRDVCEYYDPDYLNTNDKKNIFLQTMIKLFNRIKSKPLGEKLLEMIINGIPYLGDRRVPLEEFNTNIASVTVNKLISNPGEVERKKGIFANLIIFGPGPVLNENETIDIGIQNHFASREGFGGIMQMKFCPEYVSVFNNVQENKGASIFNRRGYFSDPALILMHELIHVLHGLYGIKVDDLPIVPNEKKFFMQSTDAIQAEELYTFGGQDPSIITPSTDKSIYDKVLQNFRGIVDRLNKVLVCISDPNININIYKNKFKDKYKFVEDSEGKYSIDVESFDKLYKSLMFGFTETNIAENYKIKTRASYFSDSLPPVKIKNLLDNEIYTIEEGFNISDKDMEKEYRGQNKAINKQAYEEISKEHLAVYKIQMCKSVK

## CC(C)C[C@H](NC(=O)CNC(=O)[C@H](C)NC(=O)[C@H](CCCNC(=N)N)NC(=O)[C@H](CO)NC(=O)[C@H](CO)NC(=O)[C@H](CCCNC(=N)N)NC(=O)[C@@H](NC(=O)[C@H](CCCCN)NC(=O)[C@H](C)NC(=O)[C@H](CCCCN)NC(=O)[C@H](C)NC(=O)[C@H](CCCNC(=N)N)NC(=O)[C@@H](NC(=O)[C@H](CCCCN)NC(=O)CNC(=O)CNC(=O)[C@H](CCC(N)=O)NC(=O)[C@H](CCCCN)NC(=O)CNC(=O)[C@H](CCCNC(=N)N)NC(=O)CNC(=O)[C@H](C)N)C(C)C)[C@@H](C)O)C(=O)N[C@@H](CCC(N)=O)C(=O)N[C@@H](Cc1ccccc1)C(=O)N1CCC[C@H]1C(=O)N[C@H](C(=O)NCC(=O)N[C@@H](CCCNC(=N)N)C(=O)N[C@H](C(=O)N[C@@H](Cc1c[nH]cn1)C(=O)N[C@@H](CCCNC(=N)N)C(=O)N[C@@H](CC(C)C)C(=O)N[C@@H](CC(C)C)C(=O)N[C@@H](CCCNC(=N)N)C(=O)N[C@@H](CCCCN)C(=O)NCC(=O)N[C@@H](CC(N)=O)C(=O)N[C@@H](Cc1ccc(O)cc1)C(=O)O)C(C)C)C(C)C [B-I]
  substrate of BttxB or not: not a substrate

## AGRGKQGGKVRAKAKTRSSRAGLQFPVGRVHRLLRK [Peptide 36]
  effectiveness as inhibitor of BttxB activity relative to B-I: about 50%

## RPKPQQFFGLM [Substance P]
  inhibition of BttxB (in words): inhibitor
